Test results reported in US4236015A, “1-(2-Acylaminophenyl)imidazoles” (Westwood Pharmaceuticals, Inc., priority 1979, dated 1980).

How the values were obtained:
T. agelloi = assay: Antifungal activity, agar dilution method; assay type: cell-based, Trichophyton ajelloi
Procedure: (§1) Various compounds of this invention display antifungal and anti-yeast activity.
(§2) In Table IX below are listed the antifungal activity of a number of compounds encompassed in the present invention. These were determined by the agar dilution method as described in Chapters 2 and 3 of Methods in Microbiology, Vol. 7B, edited by J. R. Norris and D. W. Ribbons, Academic Press, New York, 1972.

[1] = system: Trichophyton mentagrophytes; assay: Antifungal activity, agar dilution method; assay type: cell-based, Trichophyton mentagrophytes (ATCC No. 8757 and 9129)
Procedure: as §1, §2

[2] = system: humeral or antibody response; assay: Hemolysin test in mice; assay type: in vivo; settings: s.c., 50% reduction of antibody activity vs control
[3] = system: cell-mediated immune response to the antigen, Mycobacterium tuberculosis H37Ra; assay: Delayed hypersensitivity test; assay type: in vivo, mouse; settings: for D.H.S. (ED60): s.c., mice, 60% reduction of edema of cell-mediated immune response vs control
Procedure: The immunosuppressant activities of the compounds of this invention were determined via the hemolysin test in mice and by the delayed hypersensitivity test. The hemolysin test used is that described in Methods in Immunology, edited by D. H. Campbell et al, W. A. Benjamin, New York 1963 pages 172-175, and measures humeral or antibody response. The delayed hypersensitivity test measures the effect of a test compound on the ability of a subject mouse to mount a cell-mediated immune response to the antigen, Mycobacterium tuberculosis H37Ra. The mouse is sensitized to the antigen by subcutaneous administration in the base of the tail. The development of the delayed hypersensitivity response may be measured at any time beginning six days after sensitization but is usually done on the ninth day as follows: The right hind paw is injected with purified protein derivative (tuberculin) while the left hind paw (control) receives physiological saline. Both paw volumes are measured after twenty-four hours and significant increase in the volume of the right hind paw is taken as a measure of an effective delayed hypersensitivity response. All compounds were administered by the subcutaneous route.
The D.H.S. (ED60) mg./kg. s.c. value appearing in column 3 is an expression of the effectiveness of the drug in reducing the edema that accompanies the cell-mediated immune response. It is a measure of the number of milligrams per kilogram of body weight of the drug administered subcutaneously which is required to reduce the edema of the cell-mediated immune response by 60% when compared to the control.

rat paw edema = assay: Rat paw edema assay, oral dosing; assay type: in vivo; settings: 4 hours
Procedure: (§3) The anti-inflammatory activity of representative compounds of this invention was determined by the rat paw edema assay both by local administration (Table XI below) and by oral dosing (Table XII below). For the oral dosing, the procedure of C. A. Winter, E. A. Risley and G. W. Nuss, Proc. Soc. Exp. Biol. Med. 111, 544 (1962) was employed with measurement taken four hours after the drug was administered. The local administration tests were carried out similarly except the irritant (carrageenan) and the test compound were injected simultaneously at time zero. Tables XI and XII report the anti-inflammatory activity of the compounds tested as % difference in the edema or swelling as compared with the control. These Tables also give the response in many instances of more than one dose level of the same drug.

Trichophyton rubrum = assay: Antifungal activity, agar dilution method; assay type: cell-based, Trichophyton rubrum (ATCC No. 10218 and 14001)
Procedure: as §1, §2

[4] = system: carrageenan rat paw edema; assay: Rat paw edema assay, local administration; assay type: in vivo; settings: 100 mg/kg
Procedure: as §3

Candida albicans = assay: Antifungal activity, agar dilution method; assay type: cell-based, Candida albicans (ATCC No. 10231)
Procedure: as §1, §2

Candida tropicalis = assay: Antifungal activity, agar dilution method; assay type: cell-based
Procedure: as §1, §2

SMILES: Cc1ccc(-c2nc3ccccc3n3ccnc23)cc1 [Compound 134]
- Parts Per Million Inhibitions, T. agelloi (T. agelloi): 100 Parts Per Million
- Parts Per Million Inhibitions, T. mentagrophytes [1]: 16 Parts Per Million
- HL(ED50) [2]: 0.5 mg/kg
- D.H.S. (ED60) [3]: 7.2 mg/kg
- Difference from Control (rat paw edema; 100 mg/kg): -43%

SMILES: CCCCCCCCCC(=O)Oc1ccc(-c2nc3ccccc3n3ccnc23)cc1 [Compound 165]
- Parts Per Million Inhibitions, T. agelloi (T. agelloi): 100 Parts Per Million
- Parts Per Million Inhibitions, T. mentagrophytes [1]: 100 Parts Per Million
- Parts Per Million Inhibitions, T. rubrum (Trichophyton rubrum): 100 Parts Per Million

SMILES: FC(F)(F)c1cccc(-c2nc3ccccc3n3ccnc23)c1 [Compound 136]
- Parts Per Million Inhibitions, T. mentagrophytes [1]: 100 Parts Per Million
- HL(ED50) [2]: 2.7 mg/kg
- D.H.S. (ED60) [3]: > 50 mg/kg
- Difference from Control (rat paw edema; 100 mg/kg): -9%
- Difference from Control (rat paw edema; 400 mg/kg): -25%

SMILES: c1ccc(Oc2ccc(-c3nc4ccccc4n4ccnc34)cc2)cc1 [Compound 219]
- ED60 ([3]; Mus musculus, sc, read-out: D.H.S. (ED60)): < 32 mg/kg

SMILES: Clc1ccc(-c2nc3ccccc3n3ccnc23)cc1 [Compound 140]
- Parts Per Million Inhibitions, T. rubrum (Trichophyton rubrum): < 0.5 Parts Per Million
- HL(ED50) [2]: 0.26 mg/kg
- D.H.S. (ED60) [3]: 1.15 mg/kg
- % Difference from Control [4]: -78%
- Difference from Control (rat paw edema; 100 mg/kg): -35%

SMILES: Cc1ccccc1-c1nc2ccccc2n2ccnc12 [Compound 132]
- Parts Per Million Inhibitions, T. agelloi (T. agelloi): 100 Parts Per Million
- Parts Per Million Inhibitions, T. mentagrophytes [1]: 100 Parts Per Million
- Difference from Control (rat paw edema; 100 mg/kg): -76%

SMILES: Cc1cccc(-c2nc3ccccc3n3ccnc23)c1 [Compound 133]
- Parts Per Million Inhibitions, C. albicans (Candida albicans): 100 Parts Per Million
- Parts Per Million Inhibitions, C. tropicalis (Candida tropicalis): 100 Parts Per Million
- Parts Per Million Inhibitions, T. agelloi (T. agelloi): 8 Parts Per Million
- Parts Per Million Inhibitions, T. mentagrophytes [1]: 8 Parts Per Million
- Parts Per Million Inhibitions, T. rubrum (Trichophyton rubrum): 8 Parts Per Million
- HL(ED50) [2]: 0.75 mg/kg
- D.H.S. (ED60) [3]: 32 mg/kg
- Difference from Control (rat paw edema; 100 mg/kg): -17%

SMILES: CC(C)(C)c1ccc(-c2nc3ccccc3n3ccnc23)cc1 [Compound 137]
- Parts Per Million Inhibitions, T. agelloi (T. agelloi): 100 Parts Per Million
- Parts Per Million Inhibitions, T. mentagrophytes [1]: 100 Parts Per Million
- HL(ED50) [2]: < 0.125 mg/kg
- D.H.S. (ED60) [3]: 3.2 mg/kg
- Difference from Control (rat paw edema; 100 mg/kg): -26%

SMILES: COc1cc(OC)cc(-c2nc3ccccc3n3ccnc23)c1 [Compound 139]
- Parts Per Million Inhibitions, T. mentagrophytes [1]: 100 Parts Per Million
- HL(ED50) [2]: 3.0 mg/kg
- D.H.S. (ED60) [3]: > 50 mg/kg
- Difference from Control (rat paw edema; 100 mg/kg): -22%
- Difference from Control (rat paw edema; 400 mg/kg): -25%

SMILES: c1ccc(-c2ccc(-c3nc4ccccc4n4ccnc34)cc2)cc1 [Compound 135]
- Parts Per Million Inhibitions, T. agelloi (T. agelloi): 100 Parts Per Million
- Parts Per Million Inhibitions, T. mentagrophytes [1]: 100 Parts Per Million
- HL(ED50) [2]: 0.033 mg/kg
- D.H.S. (ED60) [3]: 0.22 mg/kg
